From patent publication EP4660184A1 (Eurofarma Laboratórios S.A., priority 2023, dated 2024)

What was measured:
[1] = molecular target: T1, human sodium channels Nav 1.8 (Homo sapiens, UniProt Q9Y5Y9); experiment: Automated whole-cell voltage-clamp (ScreenPatch 384P) sodium current block, Nav 1.8; format: cell-based; conditions: CHO cells stably expressing human Nav 1.8; inactivation step -40 mV for 8 seconds, test step 10 mV (TP1A); exposure at least five minutes; room temperature; mean if two or more assays; read-out: Nav1.8 IC50
T1 construct: expressed in transfected cells
Description: (§1) Biological assays were performed on Chinese hamster ovary (CHO) cells that express human sodium channels Nav 1.8 or Nav 1.7 in a stable manner.
(§2) The experimental protocol voltage-clamp using the whole cell configuration was established on the automated ScreenPatch® 384P platform (SP384PE, Nanion Technologies, Livingston, NJ) and the results were recorded with a Nanion 384-well Patch Clamp chip (NPC) (Nanion Technologies, Livingston, NJ).
(§3) Formula I compounds were diluted in eight concentrations in the extracellular solution composed of saline saline solution, buffered with HEPES (mM): NaCl, 137; KCl, 4; CaCl2, 3,8; MgCl2, 1; HEPES, 10; Glucose, 10; pH 7.4. The […], 50; CsF, 90; MgCl2, 5; EGTA, 5; HEPES, 10; pH 7.2. The duration of exposure of each compound with cells expressing Nav 1.7 or Nav 1.8 was at least five minutes and the assays were performed at room temperature.
(§4) The measurements of the sodium currents of Nav 1.8 and Nav 1.7 were obtained using the voltage protocol described below.
(§5) A holding voltage of -100 mV was established followed by an inactivation voltage step at -40 mV for 8 seconds, followed by a step of -100 mV for 20 ms, followed by a 20 ms step for 10 mV for Nav 1.8 or 0 mV for Nav 1.7 (TP1A) before returning to the holding voltage of -100 mV.
(§6) The protocol was repeated at a frequency of 0.05 Hz and the amplitude of the current was quantified throughout the recording of the TP1A phase. The variation in the amplitude of the peak current was evaluated according to the formula described below, after exposing the cells expressing the channels to each concentration of the different compounds: % Block = (1−(ITP1A,molecule/ITP1A,basal)×100%, [formula] wherein ITP1A,basal and ITP1A,molecule represent the peaks of sodium current input into TP1A before exposure to the compound and in the presence of the compound, respectively.
(§7) Data were obtained by nonlinear regression (nonlinear least squares) with XLfit for Excel (Microsoft, Redmond, WA).
(§8) The compounds were tested in at least one assay to obtain the value of CI50. For compounds that were tested in two or more assays, the results are described as the mean of the CI50 values.

[2] = molecular target: T2, human sodium channels Nav 1.7 (Homo sapiens, UniProt Q15858); experiment: Automated whole-cell voltage-clamp (ScreenPatch 384P) sodium current block, Nav 1.7; format: cell-based; conditions: CHO cells stably expressing human Nav 1.7; inactivation step -40 mV for 8 seconds, test step 0 mV (TP1A); exposure at least five minutes; room temperature; mean if two or more assays; read-out: Nav1.7 IC50
T2 construct: expressed in transfected cells
Description: as §1, §2, §3, §4, §5, §6, §7, §8

T1 sequence (Q9Y5Y9 whole entry): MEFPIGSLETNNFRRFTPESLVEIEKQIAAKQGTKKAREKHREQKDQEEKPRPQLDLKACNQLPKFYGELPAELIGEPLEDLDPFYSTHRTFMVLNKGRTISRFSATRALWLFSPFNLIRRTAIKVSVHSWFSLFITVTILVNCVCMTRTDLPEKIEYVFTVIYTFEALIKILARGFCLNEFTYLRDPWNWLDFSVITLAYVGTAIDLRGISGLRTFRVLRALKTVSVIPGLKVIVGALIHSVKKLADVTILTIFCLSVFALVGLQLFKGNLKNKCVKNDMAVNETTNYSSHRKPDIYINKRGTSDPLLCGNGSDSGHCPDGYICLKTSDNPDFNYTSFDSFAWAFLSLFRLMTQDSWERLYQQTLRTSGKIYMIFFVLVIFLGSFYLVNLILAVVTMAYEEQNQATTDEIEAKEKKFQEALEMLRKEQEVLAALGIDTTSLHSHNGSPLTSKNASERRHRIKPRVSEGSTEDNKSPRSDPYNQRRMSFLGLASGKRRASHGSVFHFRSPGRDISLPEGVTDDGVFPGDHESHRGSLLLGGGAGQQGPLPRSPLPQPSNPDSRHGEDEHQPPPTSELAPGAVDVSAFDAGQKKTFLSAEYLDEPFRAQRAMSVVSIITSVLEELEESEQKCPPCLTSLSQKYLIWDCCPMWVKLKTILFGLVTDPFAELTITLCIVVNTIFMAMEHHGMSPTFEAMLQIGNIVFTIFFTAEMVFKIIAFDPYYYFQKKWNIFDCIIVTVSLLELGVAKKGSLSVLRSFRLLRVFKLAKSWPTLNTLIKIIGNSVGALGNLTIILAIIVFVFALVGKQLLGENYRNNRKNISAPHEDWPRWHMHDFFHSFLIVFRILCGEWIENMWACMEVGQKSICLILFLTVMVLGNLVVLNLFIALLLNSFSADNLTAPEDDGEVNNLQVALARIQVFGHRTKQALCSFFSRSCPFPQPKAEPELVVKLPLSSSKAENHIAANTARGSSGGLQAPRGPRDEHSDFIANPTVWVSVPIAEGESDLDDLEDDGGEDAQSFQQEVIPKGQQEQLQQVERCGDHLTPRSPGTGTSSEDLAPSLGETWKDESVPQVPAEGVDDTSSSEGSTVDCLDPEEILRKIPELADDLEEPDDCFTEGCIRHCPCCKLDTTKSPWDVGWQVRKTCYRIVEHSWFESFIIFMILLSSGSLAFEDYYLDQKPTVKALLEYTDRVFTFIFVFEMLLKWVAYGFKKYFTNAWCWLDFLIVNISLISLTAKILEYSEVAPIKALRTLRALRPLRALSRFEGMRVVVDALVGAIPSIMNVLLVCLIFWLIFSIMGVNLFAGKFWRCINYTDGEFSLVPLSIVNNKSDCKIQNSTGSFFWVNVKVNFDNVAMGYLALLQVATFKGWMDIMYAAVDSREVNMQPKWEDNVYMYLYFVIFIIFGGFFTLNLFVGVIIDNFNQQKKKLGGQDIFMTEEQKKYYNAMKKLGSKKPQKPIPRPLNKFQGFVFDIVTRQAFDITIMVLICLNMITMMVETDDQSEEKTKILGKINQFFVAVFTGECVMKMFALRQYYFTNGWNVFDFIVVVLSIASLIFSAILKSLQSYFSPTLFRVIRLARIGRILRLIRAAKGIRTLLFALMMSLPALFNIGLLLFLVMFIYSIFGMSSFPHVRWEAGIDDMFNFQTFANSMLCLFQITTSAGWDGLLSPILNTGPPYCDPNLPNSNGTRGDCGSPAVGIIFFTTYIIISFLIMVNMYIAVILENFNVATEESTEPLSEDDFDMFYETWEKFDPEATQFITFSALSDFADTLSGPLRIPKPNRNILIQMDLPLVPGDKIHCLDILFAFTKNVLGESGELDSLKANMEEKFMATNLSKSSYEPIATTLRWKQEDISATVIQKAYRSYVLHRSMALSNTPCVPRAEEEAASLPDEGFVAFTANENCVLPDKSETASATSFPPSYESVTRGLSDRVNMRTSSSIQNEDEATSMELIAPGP
T2 sequence (Q15858 whole entry): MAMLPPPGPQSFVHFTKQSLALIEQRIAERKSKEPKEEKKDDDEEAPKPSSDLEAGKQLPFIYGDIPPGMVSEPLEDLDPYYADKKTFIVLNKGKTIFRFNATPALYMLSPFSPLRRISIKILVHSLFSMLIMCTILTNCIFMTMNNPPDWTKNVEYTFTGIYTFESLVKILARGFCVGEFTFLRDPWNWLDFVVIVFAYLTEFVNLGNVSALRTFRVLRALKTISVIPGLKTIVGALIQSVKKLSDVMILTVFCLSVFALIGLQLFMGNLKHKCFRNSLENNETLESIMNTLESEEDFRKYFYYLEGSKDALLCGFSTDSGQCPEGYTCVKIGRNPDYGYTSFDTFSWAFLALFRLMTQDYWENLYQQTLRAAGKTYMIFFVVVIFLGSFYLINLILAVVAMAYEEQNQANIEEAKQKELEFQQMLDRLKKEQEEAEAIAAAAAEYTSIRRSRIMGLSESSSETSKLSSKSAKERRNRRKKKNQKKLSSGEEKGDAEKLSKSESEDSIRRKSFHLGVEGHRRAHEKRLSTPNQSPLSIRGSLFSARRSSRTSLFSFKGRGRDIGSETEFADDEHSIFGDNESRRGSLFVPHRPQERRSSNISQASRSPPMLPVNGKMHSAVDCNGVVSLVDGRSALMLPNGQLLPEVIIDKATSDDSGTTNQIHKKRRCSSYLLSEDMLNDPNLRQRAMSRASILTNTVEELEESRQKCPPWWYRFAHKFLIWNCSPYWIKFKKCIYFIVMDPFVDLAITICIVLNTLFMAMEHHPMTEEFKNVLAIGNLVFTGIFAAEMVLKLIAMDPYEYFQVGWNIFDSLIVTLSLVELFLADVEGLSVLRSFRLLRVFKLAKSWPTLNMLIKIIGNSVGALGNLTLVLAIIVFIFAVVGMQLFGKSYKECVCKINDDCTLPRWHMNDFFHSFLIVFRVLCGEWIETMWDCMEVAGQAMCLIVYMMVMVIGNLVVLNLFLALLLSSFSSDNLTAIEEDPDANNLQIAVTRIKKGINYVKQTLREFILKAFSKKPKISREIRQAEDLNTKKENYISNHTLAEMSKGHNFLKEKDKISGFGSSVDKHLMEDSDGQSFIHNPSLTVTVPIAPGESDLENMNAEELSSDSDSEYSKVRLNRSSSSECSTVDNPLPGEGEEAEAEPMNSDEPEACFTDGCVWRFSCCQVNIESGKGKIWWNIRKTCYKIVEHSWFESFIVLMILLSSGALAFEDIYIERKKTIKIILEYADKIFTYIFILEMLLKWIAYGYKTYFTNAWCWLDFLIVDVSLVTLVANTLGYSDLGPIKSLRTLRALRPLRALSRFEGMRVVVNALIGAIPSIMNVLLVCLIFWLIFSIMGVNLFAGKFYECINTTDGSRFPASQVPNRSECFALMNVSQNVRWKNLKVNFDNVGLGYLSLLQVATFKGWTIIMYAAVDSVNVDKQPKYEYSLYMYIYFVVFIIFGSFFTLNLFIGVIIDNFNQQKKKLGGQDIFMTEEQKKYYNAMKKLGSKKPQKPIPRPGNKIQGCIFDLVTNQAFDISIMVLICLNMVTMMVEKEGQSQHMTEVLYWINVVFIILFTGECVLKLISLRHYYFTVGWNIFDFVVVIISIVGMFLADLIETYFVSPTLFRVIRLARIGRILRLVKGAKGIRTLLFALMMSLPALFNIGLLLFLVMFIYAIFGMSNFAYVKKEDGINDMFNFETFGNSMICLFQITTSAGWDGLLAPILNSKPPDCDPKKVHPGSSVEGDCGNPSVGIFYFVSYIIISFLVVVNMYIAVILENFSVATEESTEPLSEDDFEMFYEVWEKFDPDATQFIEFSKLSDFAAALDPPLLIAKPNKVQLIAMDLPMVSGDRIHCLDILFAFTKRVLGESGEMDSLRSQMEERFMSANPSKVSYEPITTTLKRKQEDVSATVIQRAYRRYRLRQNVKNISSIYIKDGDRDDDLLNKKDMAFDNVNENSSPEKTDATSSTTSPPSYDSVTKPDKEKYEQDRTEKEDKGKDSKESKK

Row | SMILES | IC50 [1] | IC50 [2]
1 | COc1ccc(F)c(CONC(=O)c2cncc(-c3ccc(OC(F)F)nc3)n2)c1 [Compound 77] | > 1000 nM | > 1000 nM
2 | CCOc1ccc(-c2cc(O)nc(C(=O)NOCc3cc(OC)ccc3F)n2)cc1 [Compound 113] | < 500 nM | > 1000 nM
3 | CCOc1ccc(-c2cccc(C(=O)NOCc3cc(OC)ccc3F)n2)cn1 [Compound 106] | > 1000 nM | > 1000 nM
4 | COc1ccc(F)c(CONC(=O)c2cncc(-c3ccc(OC4CN(C)C4)cc3)n2)c1 [Compound 25, N-((2-fluoro-5-methoxybenzyl)oxy)-6-(4-((1-methylazetidine-3-yl)oxy)phenyl)pyrazine-2-carboxamide] | 500 to 1000 nM | > 1000 nM
5 | COc1ccc(F)c(CONC(=O)c2cncc(-c3ccc(OCC4CN(C)C4)cc3)n2)c1 [Compound 26, N-((2-fluoro-5-methoxybenzyl)oxy)-6-(4-((1-methylazetidine-3-yl)methoxy)phenyl)pyrazine-2-carboxamide] | < 500 nM | 500 to 1000 nM
6 | CCOc1ccc(-c2cncc(C(=O)NOCc3cc(OC)ccc3C3CC3)n2)cc1 [Compound 15, N-((2-cyclopropyl-5-methoxybenzyl)oxy)-6-(4-ethoxyphenyl)pyrazine-2-carboxamide] | < 500 nM | < 500 nM
7 | CCOc1ccc(-c2nccc(C(=O)NOCc3cc(OC)ccc3F)n2)cn1 [Compound 109] | < 500 nM | > 1000 nM
8 | COc1cnc(F)c(CONC(=O)c2ccnc(-c3ccc(OC(F)F)nc3)n2)c1 [Compound 117] | > 1000 nM | > 1000 nM
9 | COc1cncc(CONC(=O)c2cncc(-c3ccc(OC(F)F)nc3)n2)c1 [Compound 82] | > 1000 nM | > 1000 nM
10 | CCOc1ccc(-c2cnc(O)c(C(=O)NOCc3cc(OC)ccc3F)n2)cn1 [Compound 101] | > 1000 nM | > 1000 nM
11 | COc1ccc(F)c(CONC(=O)c2nccc(-c3ccc(OC(F)F)nc3)n2)c1 [Compound 119] | < 500 nM | > 1000 nM
12 | [2H]C([2H])([2H])Oc1ccc(F)c(CONC(=O)c2cncc(-c3ccc(OC(F)F)nc3)n2)c1 [Compound 83] | > 1000 nM | > 1000 nM
13 | CCOc1ccc(-c2cncc(C(=O)NOCc3ccnn3C(C)C)n2)cn1 [Compound 64] | > 1000 nM | > 1000 nM
14 | COc1ccc(F)c(CONC(=O)c2cnc(F)c(-c3ccc(OC(F)F)nc3)n2)c1 [Compound 124] | > 1000 nM | > 1000 nM
15 | O=C(NOCc1ccccn1)c1cncc(-c2ccc(OC(F)(F)F)nc2)n1 [Compound 73] | < 500 nM | > 1000 nM
16 | CCOc1ccc(-c2cncc(C(=O)NOCc3cccc(O)c3)n2)cn1 [Compound 35, 6-(6-ethoxypyridine-3-yl)-N-((3-hydroxybenzyl)oxy)pyrazine-2-carboxamide] | < 500 nM | > 1000 nM
17 | CCOc1ccc(-c2cncc(C(=O)NOCc3cc(OC)ccc3F)n2)c(C)c1 [Compound 86] | < 500 nM | > 1000 nM
18 | CCOc1ccc(-c2cncc(C(=O)NOCc3cc(OC)ccc3F)n2)c(O)c1 [Compound 85] | > 1000 nM | > 1000 nM
19 | CCOc1ccc(-c2cncc(C(=O)NOCc3cc(OC)cnc3F)n2)cc1 [Compound 12, 6-(4-ethoxyphenyl)-N-((2-fluoro-5-methoxypyridine-3-yl)methoxy)pyrazine-2-carboxamide] | < 500 nM | > 1000 nM
20 | COc1cnc(F)c(CONC(=O)c2cncc(-c3ccc(OC(F)F)nc3)n2)c1 [Compound 78] | > 1000 nM | > 1000 nM
21 | CCOc1ccc(-c2nc(C(=O)NOCc3cc(OC)ccc3F)cnc2N)cn1 [Compound 102] | < 500 nM | > 1000 nM
22 | CCOc1ccc(-c2cncc(C(=O)NOCc3cc(C)cc(C)c3)n2)cc1 [Compound 21, N-((3,5-dimethylbenzyl)oxy)-6-(4-ethoxyphenyl)pyrazine-2-carboxamide] | > 1000 nM | > 1000 nM
23 | CCOc1ccc(-c2cncc(C(=O)NOCc3cc(O)ccc3F)n2)cc1 [Compound 14, 6-(4-ethoxyphenyl)-N-((2-fluoro-5-hydroxybenzyl)oxy)pyrazine-2-carboxamide] | < 500 nM | > 1000 nM

Second part, the compound after the results:

Row | IC50 [1] | IC50 [2] | SMILES
24 | > 1000 nM | > 1000 nM | CCOc1ccc(-c2cncc(C(=O)NOCc3c[nH]nc3C)n2)cn1 [Compound 69, 6-(6-ethoxypyridine-3-yl)-N-((3-methyl-1H-pyrazole-4-yl)methoxy)pyrazine-2-carboxamide]
25 | > 1000 nM | > 1000 nM | [2H]C([2H])([2H])COc1ccc(-c2cncc(C(=O)NOCc3cc(OC)ccc3F)n2)cn1 [Compound 49, 6-(6-(ethoxy-2,2,2-d3)pyridine-3-yl)-N-((2-fluoro-5-methoxybenzyl)oxy)pyrazine-2-carboxamide]
26 | < 500 nM | > 1000 nM | CCOc1ccc(-c2cncc(C(=O)NOCc3cc(OC)cnc3F)n2)cn1 [Compound 38, 6-(6-ethoxypyridine-3-yl)-N-((2-fluoro-5-methoxypyridine-3-yl)methoxy)pyrazine-2-carboxamide]
27 | > 1000 nM | > 1000 nM | CCOc1ccc(-c2cncc(C(=O)NOCc3cc(OC)ccc3O)n2)cn1 [Compound 44, 6-(6-ethoxypyridine-3-yl)-N-((2-hydroxy-5-methoxybenzyl)oxy)pyrazine-2-carboxamide]
28 | < 500 nM | > 1000 nM | COc1ccc(F)c(CONC(=O)c2cncc(-c3ccc(OC)nc3)n2)c1 [Compound 30, N-((2-fluoro-5-methoxybenzyl)oxy)-6-(6-methoxypyridine-3-yl)pyrazine-2-carboxamide]
29 | > 1000 nM | > 1000 nM | CCOc1ccc(-c2cncc(C(=O)NOCc3cc(O)ccc3F)n2)cn1 [Compound 43, 6-(6-ethoxypyridine-3-yl)-N-((2-fluoro-5-hydroxybenzyl)oxy)pyrazine-2-carboxamide]
30 | < 500 nM | > 1000 nM | CCOc1ccc(-c2cncc(C(=O)NOCc3cc(OC)ccc3F)n2)cn1 [Compound 37, 6-(6-ethoxypyridine-3-yl)-N-((2-fluoro-5-methoxybenzyl)oxy)pyrazine-2-carboxamide]
31 | > 1000 nM | > 1000 nM | CCOc1ccc(-c2cncc(C(=O)NOCc3occc3OC)n2)cn1 [Compound 66, 6-(6-ethoxypyridine-3-yl)-N-((3-methoxyfuran-2-yl)methoxy)pyrazine-2-carboxamide]
32 | > 1000 nM | > 1000 nM | [2H]C([2H])(C)Oc1ccc(-c2cncc(C(=O)NOCc3cc(OC)ccc3F)n2)cn1 [Compound 50, 6-(6-(ethoxy-1,1-d2)pyridine-3-yl)-N-((2-fluoro-5-methoxybenzyl)oxy)pyrazine-2-carboxamide]
33 | > 1000 nM | > 1000 nM | CCOc1ccc(-c2cncc(C(=O)NOCc3ncoc3C)n2)cn1 [Compound 57, 6-(6-ethoxypyridine-3-yl)-N-((5-methyloxazole-4-yl)methoxy)pyrazine-2-carboxamide]
34 | 500 to 1000 nM | > 1000 nM | CCOc1ccc(-c2cncc(C(=O)NOCc3ccccc3F)n2)cn1 [Compound 32, 6-(6-ethoxypyridine-3-yl)-N-((2-fluorobenzyl)oxy)pyrazine-2-carboxamide]
35 | < 500 nM | > 1000 nM | CCOc1ccc(-c2cncc(C(=O)NOCc3cc(OC)ncc3F)n2)cn1 [Compound 39, 6-(6-ethoxypyridine-3-yl)-N-((5-fluoro-2-methoxypyridine-4-yl)methoxy)pyrazine-2-carboxamide]
36 | < 500 nM | > 1000 nM | CCOc1ccc(-c2cncc(C(=O)NOCc3cc(N(C)C)cnc3F)n2)cn1 [Compound 41, N-((5-(dimethylamino)-2-fluoropyridine-3-yl)methoxy)-6-(6-ethoxypyridine-3-yl)pyrazine-2-carboxamide]
37 | < 500 nM | > 1000 nM | CCOc1ccc(-c2cncc(C(=O)NOCc3cc(OC)ncc3F)n2)cc1 [Compound 13, 6-(4-ethoxyphenyl)-N-((5-fluoro-2-methoxypyridine-4-yl)methoxy)pyrazine-2-carboxamide]
38 | < 500 nM | > 1000 nM | CCOc1ccc(-c2cncc(C(=O)NOCc3nccn3CC)n2)cn1 [Compound 61, 6-(6-ethoxypyridine-3-yl)-N-((1-ethyl-1H-imidazole-2-yl)methoxy)pyrazine-2-carboxamide]
